Assay results from ChEMBL document CHEMBL1649220, “New variant of CTX-M-type extended-spectrum beta-lactamases, CTX-M-71, with a Gly238Cys substitution in a Klebsiella pneumoniae isolate from Bulgaria” (2009).
In brackets after ≈: the same amount, converted by molar mass.

test system: Klebsiella pneumoniae; test: Antimicrobial activity against Klebsiella pneumoniae AH24-270 expressing blaCTX-M-71 gene by agar dilution method; assay type: functional; settings: not given

Row | Structure (SMILES) | MIC [µg/mL]
1 | C[C@@H](O)[C@H]1C(=O)N2C(C(=O)O)=C(S[C@@H]3CN[C@H](C(=O)Nc4cccc(C(=O)O)c4)C3)[C@H](C)[C@H]12 [ERTAPENEM] | 3 (≈ 6.31 µM)
2 | C[C@@H](O)[C@H]1C(=O)N2C(C(=O)O)=C(S[C@@H]3CN[C@H](C(=O)N(C)C)C3)[C@H](C)[C@H]12 [MEROPENEM] | 4 (≈ 10.4 µM)
3 | CO/N=C(\C(=O)N[C@@H]1C(=O)N2C(C(=O)O)=C(COC(C)=O)CS[C@H]12)c1csc(N)n1 [CEFOTAXIME] | 64 (≈ 141 µM)

test system: Escherichia coli; test: Antimicrobial activity against Escherichia coli DH5alpha harboring pBC-CTX-M-71 plasmid by agar dilution method in presence of beta-lactamase inhibitor clavulanic acid; assay type: functional; settings: DH5[alpha]

Row | Structure (SMILES) | MIC [µg/mL]
4 | C[C@@H](O)[C@H]1C(=O)N2C(C(=O)O)=C(S[C@@H]3CN[C@H](C(=O)N(C)C)C3)[C@H](C)[C@H]12 [MEROPENEM] | 0.03
5 | CO/N=C(\C(=O)N[C@@H]1C(=O)N2C(C(=O)O)=C(COC(C)=O)CS[C@H]12)c1csc(N)n1 [CEFOTAXIME] | 0.03

test system: Escherichia coli; test: Antimicrobial activity against Escherichia coli DH5[alpha] harboring pBC-CTX-M-15 plasmid by agar dilution method; assay type: functional; settings: not given

Row | Structure (SMILES) | MIC [µg/mL]
6 | C[C@@H](O)[C@H]1C(=O)N2C(C(=O)O)=C(S[C@@H]3CN[C@H](C(=O)Nc4cccc(C(=O)O)c4)C3)[C@H](C)[C@H]12 [ERTAPENEM] | 0.03 (≈ 0.0631 µM)
7 | C[C@@H](O)[C@H]1C(=O)N2C(C(=O)O)=C(S[C@@H]3CN[C@H](C(=O)N(C)C)C3)[C@H](C)[C@H]12 [MEROPENEM] | 0.03 (≈ 0.0782 µM)
8 | CO/N=C(\C(=O)N[C@@H]1C(=O)N2C(C(=O)O)=C(COC(C)=O)CS[C@H]12)c1csc(N)n1 [CEFOTAXIME] | > 256

test system: Escherichia coli; test: Antimicrobial activity against Escherichia coli DH5alpha harboring pBC-CTX-M-15 plasmid by agar dilution method in presence of beta-lactamase inhibitor clavulanic acid; assay type: functional; settings: DH5[alpha]

Row | Structure (SMILES) | MIC [µg/mL]
9 | C[C@@H](O)[C@H]1C(=O)N2C(C(=O)O)=C(S[C@@H]3CN[C@H](C(=O)N(C)C)C3)[C@H](C)[C@H]12 [MEROPENEM] | 0.03
10 | CO/N=C(\C(=O)N[C@@H]1C(=O)N2C(C(=O)O)=C(COC(C)=O)CS[C@H]12)c1csc(N)n1 [CEFOTAXIME] | 0.06

test system: Klebsiella pneumoniae; test: Antimicrobial activity against Klebsiella pneumoniae AH24-270 expressing blaCTX-M-71 gene by agar dilution method in presence of beta-lactamase inhibitor clavulanic acid; assay type: functional; settings: not given

Row | Structure (SMILES) | MIC [µg/mL]
11 | C[C@@H](O)[C@H]1C(=O)N2C(C(=O)O)=C(S[C@@H]3CN[C@H](C(=O)Nc4cccc(C(=O)O)c4)C3)[C@H](C)[C@H]12 [ERTAPENEM] | 8
12 | C[C@@H](O)[C@H]1C(=O)N2C(C(=O)O)=C(S[C@@H]3CN[C@H](C(=O)N(C)C)C3)[C@H](C)[C@H]12 [MEROPENEM] | 0.5
13 | CO/N=C(\C(=O)N[C@@H]1C(=O)N2C(C(=O)O)=C(COC(C)=O)CS[C@H]12)c1csc(N)n1 [CEFOTAXIME] | 2

test system: Escherichia coli; test: Antimicrobial activity against Escherichia coli K-12 transconjugant harboring blaCTX-M-71 gene by agar dilution method in presence of beta-lactamase inhibitor clavulanic acid; assay type: functional; settings: not given

Row | Structure (SMILES) | MIC [µg/mL]
14 | C[C@@H](O)[C@H]1C(=O)N2C(C(=O)O)=C(S[C@@H]3CN[C@H](C(=O)N(C)C)C3)[C@H](C)[C@H]12 [MEROPENEM] | 0.016
15 | CO/N=C(\C(=O)N[C@@H]1C(=O)N2C(C(=O)O)=C(COC(C)=O)CS[C@H]12)c1csc(N)n1 [CEFOTAXIME] | 0.06

test system: Escherichia coli; test: Antimicrobial activity against Escherichia coli K-12 by agar dilution method in presence of beta-lactamase inhibitor clavulanic acid; assay type: functional; settings: not given

Row | Structure (SMILES) | MIC [µg/mL]
16 | C[C@@H](O)[C@H]1C(=O)N2C(C(=O)O)=C(S[C@@H]3CN[C@H](C(=O)N(C)C)C3)[C@H](C)[C@H]12 [MEROPENEM] | 0.016
17 | CO/N=C(\C(=O)N[C@@H]1C(=O)N2C(C(=O)O)=C(COC(C)=O)CS[C@H]12)c1csc(N)n1 [CEFOTAXIME] | 0.016

test system: Escherichia coli; test: Antimicrobial activity against Escherichia coli DH5[alpha] by agar dilution method; assay type: functional; settings: not given

Row | Structure (SMILES) | MIC [µg/mL]
18 | C[C@@H](O)[C@H]1C(=O)N2C(C(=O)O)=C(S[C@@H]3CN[C@H](C(=O)Nc4cccc(C(=O)O)c4)C3)[C@H](C)[C@H]12 [ERTAPENEM] | 0.016 (≈ 0.0336 µM)
19 | C[C@@H](O)[C@H]1C(=O)N2C(C(=O)O)=C(S[C@@H]3CN[C@H](C(=O)N(C)C)C3)[C@H](C)[C@H]12 [MEROPENEM] | 0.03 (≈ 0.0782 µM)
20 | CO/N=C(\C(=O)N[C@@H]1C(=O)N2C(C(=O)O)=C(COC(C)=O)CS[C@H]12)c1csc(N)n1 [CEFOTAXIME] | 0.03 (≈ 0.0659 µM)

test system: Escherichia coli; test: Antimicrobial activity against Escherichia coli DH5[alpha] harboring pBC-CTX-M-71 plasmid by agar dilution method; assay type: functional; settings: not given

Row | Structure (SMILES) | MIC [µg/mL]
21 | C[C@@H](O)[C@H]1C(=O)N2C(C(=O)O)=C(S[C@@H]3CN[C@H](C(=O)Nc4cccc(C(=O)O)c4)C3)[C@H](C)[C@H]12 [ERTAPENEM] | 0.016 (≈ 0.0336 µM)
22 | C[C@@H](O)[C@H]1C(=O)N2C(C(=O)O)=C(S[C@@H]3CN[C@H](C(=O)N(C)C)C3)[C@H](C)[C@H]12 [MEROPENEM] | 0.03 (≈ 0.0782 µM)
23 | CO/N=C(\C(=O)N[C@@H]1C(=O)N2C(C(=O)O)=C(COC(C)=O)CS[C@H]12)c1csc(N)n1 [CEFOTAXIME] | 16 (≈ 35.1 µM)

test system: Escherichia coli; test: Antimicrobial activity against Escherichia coli DH5alpha by agar dilution method in presence of beta-lactamase inhibitor clavulanic acid; assay type: functional; settings: DH5[alpha]

Row | Structure (SMILES) | MIC [µg/mL]
24 | C[C@@H](O)[C@H]1C(=O)N2C(C(=O)O)=C(S[C@@H]3CN[C@H](C(=O)N(C)C)C3)[C@H](C)[C@H]12 [MEROPENEM] | 0.03
25 | CO/N=C(\C(=O)N[C@@H]1C(=O)N2C(C(=O)O)=C(COC(C)=O)CS[C@H]12)c1csc(N)n1 [CEFOTAXIME] | 0.016

test system: Escherichia coli; test: Antimicrobial activity against Escherichia coli K-12 transconjugant harboring blaCTX-M-71 gene by agar dilution method; assay type: functional; settings: not given

Row | Structure (SMILES) | MIC [µg/mL]
26 | C[C@@H](O)[C@H]1C(=O)N2C(C(=O)O)=C(S[C@@H]3CN[C@H](C(=O)Nc4cccc(C(=O)O)c4)C3)[C@H](C)[C@H]12 [ERTAPENEM] | 0.016 (≈ 0.0336 µM)
27 | C[C@@H](O)[C@H]1C(=O)N2C(C(=O)O)=C(S[C@@H]3CN[C@H](C(=O)N(C)C)C3)[C@H](C)[C@H]12 [MEROPENEM] | 0.03 (≈ 0.0782 µM)
28 | CO/N=C(\C(=O)N[C@@H]1C(=O)N2C(C(=O)O)=C(COC(C)=O)CS[C@H]12)c1csc(N)n1 [CEFOTAXIME] | 4 (≈ 8.78 µM)

test system: Escherichia coli; test: Antimicrobial activity against Escherichia coli K-12 by agar dilution method; assay type: functional; settings: not given

Row | Structure (SMILES) | MIC [µg/mL]
29 | C[C@@H](O)[C@H]1C(=O)N2C(C(=O)O)=C(S[C@@H]3CN[C@H](C(=O)Nc4cccc(C(=O)O)c4)C3)[C@H](C)[C@H]12 [ERTAPENEM] | 0.008 (≈ 0.0168 µM)
30 | C[C@@H](O)[C@H]1C(=O)N2C(C(=O)O)=C(S[C@@H]3CN[C@H](C(=O)N(C)C)C3)[C@H](C)[C@H]12 [MEROPENEM] | 0.03 (≈ 0.0782 µM)
31 | CO/N=C(\C(=O)N[C@@H]1C(=O)N2C(C(=O)O)=C(COC(C)=O)CS[C@H]12)c1csc(N)n1 [CEFOTAXIME] | 0.03 (≈ 0.0659 µM)
